Measurements: ChEMBL document CHEMBL5257022, “An integrated overview on pyrrolizines as potential anti-inflammatory, analgesic and antipyretic agents” (Eur J Med Chem, 2016)

Experiments:
Rattus norvegicus [1] = assay: Antiinflammatory activity in rat assessed as inhibition of paw edema; format: functional
Rattus norvegicus [2] = assay: Antiinflammatory activity in rat assessed as fold change in inhibition of paw edema relative to phenylbutazone; format: functional
Mus musculus = species on record: Mus musculus; assay: Analgesic activity in mouse assessed as inhibition of acetic acid-induced writhing response relative to aspirin; format: functional
[3] = biological target: T1, Prostaglandin G/H synthase 2 (Homo sapiens, UniProt P35354); assay: Inhibition of COX2 (unknown origin)
T1 sequence (P35354 whole entry): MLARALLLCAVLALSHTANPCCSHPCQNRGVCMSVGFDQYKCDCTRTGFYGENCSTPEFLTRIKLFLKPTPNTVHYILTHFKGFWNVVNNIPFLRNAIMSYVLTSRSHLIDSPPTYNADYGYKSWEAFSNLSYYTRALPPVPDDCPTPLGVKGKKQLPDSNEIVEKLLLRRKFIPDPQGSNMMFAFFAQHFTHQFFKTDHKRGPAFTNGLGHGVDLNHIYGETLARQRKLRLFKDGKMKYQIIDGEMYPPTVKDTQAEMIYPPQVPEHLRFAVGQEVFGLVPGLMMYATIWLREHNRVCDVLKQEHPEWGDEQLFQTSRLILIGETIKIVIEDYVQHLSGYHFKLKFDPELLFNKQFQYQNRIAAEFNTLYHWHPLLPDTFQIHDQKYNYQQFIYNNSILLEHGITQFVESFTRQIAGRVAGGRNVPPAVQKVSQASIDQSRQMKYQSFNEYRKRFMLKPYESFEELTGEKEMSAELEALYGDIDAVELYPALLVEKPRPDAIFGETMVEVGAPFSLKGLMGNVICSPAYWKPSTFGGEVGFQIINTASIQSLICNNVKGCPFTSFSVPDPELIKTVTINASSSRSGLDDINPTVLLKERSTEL

[4] = biological target: Prostaglandin G/H synthase 1 (Homo sapiens, UniProt P23219); assay: Inhibition of COX1 (unknown origin)
[5] = biological target: T2, Polyunsaturated fatty acid 5-lipoxygenase (Homo sapiens) (UniProt P09917); assay: Inhibition of 5-LOX in human PMNL at 10 uM relative to control; format: cell-based
T2 sequence (whole entry): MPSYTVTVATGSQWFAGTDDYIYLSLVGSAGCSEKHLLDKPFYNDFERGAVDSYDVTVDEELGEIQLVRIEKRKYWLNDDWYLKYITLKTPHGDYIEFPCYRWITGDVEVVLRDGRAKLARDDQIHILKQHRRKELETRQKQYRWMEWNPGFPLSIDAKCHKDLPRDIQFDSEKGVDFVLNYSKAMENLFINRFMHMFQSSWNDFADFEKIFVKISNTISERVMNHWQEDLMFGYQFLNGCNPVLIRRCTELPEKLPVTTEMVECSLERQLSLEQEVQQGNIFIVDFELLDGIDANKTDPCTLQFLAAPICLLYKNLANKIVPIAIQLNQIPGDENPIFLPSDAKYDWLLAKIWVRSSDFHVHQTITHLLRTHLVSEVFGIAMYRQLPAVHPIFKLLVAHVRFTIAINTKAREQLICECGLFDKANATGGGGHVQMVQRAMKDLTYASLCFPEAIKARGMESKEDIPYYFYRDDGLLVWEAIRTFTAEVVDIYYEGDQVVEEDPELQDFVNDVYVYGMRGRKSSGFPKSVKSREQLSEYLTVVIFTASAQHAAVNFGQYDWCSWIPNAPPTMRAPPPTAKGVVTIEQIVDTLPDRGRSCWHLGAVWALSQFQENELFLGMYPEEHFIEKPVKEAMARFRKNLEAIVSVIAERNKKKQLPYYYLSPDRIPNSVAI

[6] = biological target: T3, Prostaglandin G/H synthase 1 (Ovis aries) (UniProt P05979); assay: Inhibition of COX1 in ovine thrombocyte at 10 uM relative to control
T3 sequence (whole entry): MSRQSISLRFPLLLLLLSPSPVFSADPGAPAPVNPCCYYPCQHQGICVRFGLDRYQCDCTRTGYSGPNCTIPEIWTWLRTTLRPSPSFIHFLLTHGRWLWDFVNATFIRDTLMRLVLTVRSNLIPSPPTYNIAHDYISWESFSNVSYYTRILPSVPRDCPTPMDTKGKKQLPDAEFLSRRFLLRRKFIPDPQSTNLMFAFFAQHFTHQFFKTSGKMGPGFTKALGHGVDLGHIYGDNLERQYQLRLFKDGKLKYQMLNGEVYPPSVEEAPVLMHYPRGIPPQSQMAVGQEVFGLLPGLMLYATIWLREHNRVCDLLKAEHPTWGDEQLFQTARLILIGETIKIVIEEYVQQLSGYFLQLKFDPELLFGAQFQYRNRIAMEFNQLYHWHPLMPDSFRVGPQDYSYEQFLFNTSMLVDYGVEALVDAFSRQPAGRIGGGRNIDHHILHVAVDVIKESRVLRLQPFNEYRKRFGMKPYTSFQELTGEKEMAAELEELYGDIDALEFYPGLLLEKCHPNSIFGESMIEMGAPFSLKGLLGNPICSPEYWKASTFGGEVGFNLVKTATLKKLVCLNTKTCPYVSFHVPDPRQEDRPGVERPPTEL

Prostaglandin G/H synthase 1, sequence (P23219 whole entry): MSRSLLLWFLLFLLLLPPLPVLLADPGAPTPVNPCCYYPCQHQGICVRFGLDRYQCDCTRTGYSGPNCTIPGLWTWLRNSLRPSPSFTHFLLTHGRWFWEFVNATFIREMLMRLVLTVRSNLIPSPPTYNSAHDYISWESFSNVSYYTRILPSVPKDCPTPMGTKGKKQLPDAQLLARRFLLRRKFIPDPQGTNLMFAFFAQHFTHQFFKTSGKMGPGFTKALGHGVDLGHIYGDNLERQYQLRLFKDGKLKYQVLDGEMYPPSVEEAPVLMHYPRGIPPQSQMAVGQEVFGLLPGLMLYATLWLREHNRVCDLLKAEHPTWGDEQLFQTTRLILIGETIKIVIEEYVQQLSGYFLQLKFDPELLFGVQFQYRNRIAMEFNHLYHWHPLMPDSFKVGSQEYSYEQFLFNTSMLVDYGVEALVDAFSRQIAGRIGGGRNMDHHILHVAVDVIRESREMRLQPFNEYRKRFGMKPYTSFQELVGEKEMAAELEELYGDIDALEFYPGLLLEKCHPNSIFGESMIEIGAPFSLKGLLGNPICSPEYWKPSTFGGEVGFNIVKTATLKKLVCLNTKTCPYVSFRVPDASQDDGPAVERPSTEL

CC(=O)Nc1c(C#N)c2n(c1C(=O)Nc1ccccc1C)CCC2
inhibition (INH) (Rattus norvegicus [1]): 23.2%

O=C(c1ccc2n1CCC2C(=O)O)C1CCC1 (stereo unspecified)
fold change (FC) (Rattus norvegicus [2]): -1.5
fold change (FC) (Mus musculus): 30

O=C(c1ccccc1)c1ccc2n1CCCCC2C(=O)O (stereo unspecified)
fold change (FC) (Rattus norvegicus [2]): -0.4
fold change (FC) (Mus musculus): -3

CS(=O)(=O)c1ccc(-c2cn3c(c2-c2ccc(Cl)cc2)CCC3)cc1
IC50 [3]: 8 nM
IC50 [4]: 8200 nM
IP [5]: 0%

CSc1ccc(-c2cn3c(c2-c2ccccc2)CCC3)cc1
IC50 [3]: 1000 nM
IC50 [4]: 1100 nM
IP [5]: 0%

CC1(C)Cc2c(-c3ccccc3)c(-c3ccsc3)c(CC(=O)O)n2C1
IC50 [4]: 60 nM

O=C(O)/C=C/c1c(-c2ccc(Nc3ccc(Cl)cc3)cc2)c(-c2ccccc2)c2n1CCC2
IP [6]: 12%

O=C(O)/C=C/c1c(-c2ccc([S+]([O-])c3ccccc3)cc2)c(-c2ccccc2)c2n1CCC2 (stereo unspecified)
IP [6]: 12%

O=C(O)/C=C/c1c(-c2ccc(Sc3ccccc3)cc2)c(-c2ccccc2)c2n1CCC2
IP [6]: 40%

O=C(O)/C=C/c1c(-c2ccccc2)c(-c2ccccc2)c2n1CCC2
IP [6]: 17%

O=C(c1ccc(F)cc1)c1ccc2n1CCCCC2C(=O)O (stereo unspecified)
fold change (FC) (Rattus norvegicus [2]): <1
fold change (FC) (Mus musculus): <1.3

Nc1ccc(-c2c(-c3ccccc3)c3n(c2/C=C/C(=O)O)CCC3)cc1
IP [6]: 31%

O=C(O)/C=C/c1c(-c2ccc(SCc3ccccc3)cc2)c(-c2ccccc2)c2n1CCC2
IC50 [4]: 5500 nM

N#Cc1c(NC(=O)CN2CCOCC2)c(C(=O)Nc2ccccc2Cl)n2c1CCC2
inhibition (INH) (Rattus norvegicus [1]): 7.1%

COc1ccc(C(=O)c2ccc3n2CCCC3C(=O)O)cc1 (stereo unspecified)
fold change (FC) (Rattus norvegicus [2]): <1.6
fold change (FC) (Mus musculus): 1.5

Cc1ccc(C(=O)c2ccc3n2CCCC3C(=O)O)cc1 (stereo unspecified)
fold change (FC) (Rattus norvegicus [2]): <1
fold change (FC) (Mus musculus): <0.5

CSc1ccc(-c2cn3c(c2-c2ccc(C)cc2)CCC3)cc1
IC50 [3]: 900 nM
IC50 [4]: 30 nM
IP [5]: 0%

Cc1ccccc1NC(=O)c1c(NC(=O)CCl)c(C#N)c2n1CCC2
inhibition (INH) (Rattus norvegicus [1]): 20.3%

Cc1ccccc1NC(=O)c1c(NC(=O)CCN2CCOCC2)c(C#N)c2n1CCC2
inhibition (INH) (Rattus norvegicus [1]): 3.2%

N#Cc1c(NC(=O)CCCl)c(C(=O)Nc2ccccc2Cl)n2c1CCC2
inhibition (INH) (Rattus norvegicus [1]): 18%

O=C(c1ccc(Cl)cc1)c1ccc2n1CCCC2C(=O)O (stereo unspecified)
fold change (FC) (Rattus norvegicus [2]): <=0.6
fold change (FC) (Mus musculus): <1

O=C(O)/C=C/c1c(-c2ccc(Nc3ccccc3)cc2)c(-c2ccccc2)c2n1CCC2
IP [6]: 45%

O=C(O)/C=C/c1c(-c2ccc(Nc3cccc(C(F)(F)F)c3)cc2)c(-c2ccccc2)c2n1CCC2
IP [6]: 45%

Cc1ccccc1NC(=O)c1c(NC(=O)CCCl)c(C#N)c2n1CCC2
inhibition (INH) (Rattus norvegicus [1]): 17.5%

CS(=O)(=O)c1ccc(C(=O)c2ccc3n2CCCC3C(=O)O)cc1 (stereo unspecified)
fold change (FC) (Rattus norvegicus [2]): 3
fold change (FC) (Mus musculus): <1

CC1(C)Cc2c(-c3ccccc3)c(-c3occ4ccccc34)c(CC(=O)O)n2C1
IC50 [4]: 20 nM

O=C(O)/C=C/c1c(-c2ccc(S(=O)(=O)c3ccccc3)cc2)c(-c2ccccc2)c2n1CCC2
IP [6]: 0%

Cc1c(-c2ccc(Cl)cc2)c(-c2ccccc2)c2n1CC(C)(C)C2=O
IC50 [4]: 950 nM

CC1(C)Cn2c(CC(=O)O)c(-c3ccc(Cl)cc3)c(-c3ccccc3)c2C1=O
IC50 [3]: 2100 nM

O=C(c1ccccc1)c1ccc2n1CC(C(=O)O)C2 (stereo unspecified)
fold change (FC) (Rattus norvegicus [2]): <1
fold change (FC) (Mus musculus): -4

Cc1ccccc1NC(=O)c1c(NC(=O)CN2CCOCC2)c(C#N)c2n1CCC2
inhibition (INH) (Rattus norvegicus [1]): 3.9%

CC(=O)Nc1c(C#N)c2n(c1C(=O)Nc1ccccc1Cl)CCC2
inhibition (INH) (Rattus norvegicus [1]): 23.9%

O=C(c1ccc(F)cc1)c1ccc2n1CCCC2C(=O)O (stereo unspecified)
fold change (FC) (Rattus norvegicus [2]): <1
fold change (FC) (Mus musculus): <10

C[S+]([O-])c1ccc(C(=O)c2ccc3n2CCCC3C(=O)O)cc1 (stereo unspecified)
fold change (FC) (Rattus norvegicus [2]): <0.2
fold change (FC) (Mus musculus): -0.5

Clc1ccc(-c2cn3c(c2-c2ccccc2)CCC3)s1
IC50 [4]: 3900 nM
IP [5]: 0%

O=C(O)/C=C/c1c(-c2ccc([S+]([O-])Cc3ccccc3)cc2)c(-c2ccccc2)c2n1CCC2 (stereo unspecified)
IP [6]: 18%

O=C(O)/C=C/c1c(-c2ccc(O)cc2)c(-c2ccccc2)c2n1CCC2
IP [6]: 0%

CSc1ccc(C(=O)c2ccc3n2CCCCC3C(=O)O)cc1 (stereo unspecified)
fold change (FC) (Rattus norvegicus [2]): <0.2
fold change (FC) (Mus musculus): -6

O=C(c1ccccc1)c1ccc2n1CCCC2C(=O)O (stereo unspecified)
fold change (FC) (Rattus norvegicus [2]): <1
fold change (FC) (Mus musculus): 9

O=C(Cc1ccccc1)c1ccc2n1CCC2C(=O)O (stereo unspecified)
fold change (FC) (Rattus norvegicus [2]): 3
fold change (FC) (Mus musculus): 14

CC(C)(C)C(=O)c1ccc2n1CCC2C(=O)O (stereo unspecified)
fold change (FC) (Rattus norvegicus [2]): 1
fold change (FC) (Mus musculus): -10

O=C(c1ccc(Cl)cc1)c1ccc2n1CC(C(=O)O)C2 (stereo unspecified)
fold change (FC) (Rattus norvegicus [2]): <0.3
fold change (FC) (Mus musculus): <10

N#Cc1c(NC(=O)CCl)c(C(=O)Nc2ccccc2Cl)n2c1CCC2
inhibition (INH) (Rattus norvegicus [1]): 22.2%

O=C(c1ccc(Cl)cc1)c1c(Cl)cc2n1CCC2C(=O)O (stereo unspecified)
fold change (FC) (Rattus norvegicus [2]): 88
fold change (FC) (Mus musculus): 167

N#Cc1ccc(C(=O)c2ccc3n2CCC3C(=O)O)cc1 (stereo unspecified)
fold change (FC) (Rattus norvegicus [2]): <1
fold change (FC) (Mus musculus): 6

N#Cc1c(NC(=O)CCN2CCOCC2)c(C(=O)Nc2ccccc2Cl)n2c1CCC2
inhibition (INH) (Rattus norvegicus [1]): 5.7%

COc1ccc(C(=O)c2ccc3n2CCC3C(=O)O)cc1 (stereo unspecified) [ANIROLAC]
fold change (FC) (Rattus norvegicus [2]): 83
fold change (FC) (Mus musculus): 117

CSc1ccc(C(=O)c2ccc3n2CCCC3C(=O)O)cc1 (stereo unspecified)
fold change (FC) (Rattus norvegicus [2]): -1
fold change (FC) (Mus musculus): 3

CS(=O)(=O)c1ccc(-c2cn3c(c2-c2ccc(F)cc2)CCC3)cc1
IC50 [3]: 160 nM
IC50 [4]: 4300 nM
IP [5]: 0%

COC1c2c(-c3ccccc3)c(-c3ccc(Cl)cc3)c(C)n2CC1(C)C (stereo unspecified)
IC50 [3]: 7500 nM

O=C(c1cccc(Cl)c1)c1ccc2n1CCCC2C(=O)O (stereo unspecified)
fold change (FC) (Rattus norvegicus [2]): 8
fold change (FC) (Mus musculus): -9

CC1(C)Cc2c(-c3ccccc3)c(-c3ccc(Cl)s3)c(CC(=O)O)n2C1
IC50 [4]: 210 nM

Cc1ccc(C(=O)c2ccc3n2CCC3C(=O)O)cc1 (stereo unspecified)
fold change (FC) (Rattus norvegicus [2]): 39
fold change (FC) (Mus musculus): 165

CC1(C)Cc2c(-c3ccccc3)c(-c3ccco3)c(CC(=O)O)n2C1
IC50 [4]: 130 nM

Cc1ccc(-c2c(-c3ccc(S(C)(=O)=O)cc3)cn3c2CCC3)cc1
IC50 [3]: 5 nM
IC50 [4]: 700 nM

O=C(O)/C=C/c1c(-c2ccc(Cc3ccccc3)cc2)c(-c2ccccc2)c2n1CCC2
IP [6]: 28%

O=C(O)/C=C/c1c(-c2ccc(-c3ccccc3)cc2)c(-c2ccccc2)c2n1CCC2
IP [6]: 35%

O=C(O)/C=C/c1c(-c2ccc(S(=O)(=O)Cc3ccccc3)cc2)c(-c2ccccc2)c2n1CCC2
IP [6]: 0%

O=C(c1ccc(F)cc1)c1ccc2n1CCC2C(=O)O (stereo unspecified)
fold change (FC) (Rattus norvegicus [2]): 61
fold change (FC) (Mus musculus): 183
